Measured values from PubChem BioAssay AID248 (DTP/NCI, 2004).
“And” between values parts separate entries of the source, which are not always exact repeats. Equal entries are not always repeated. Inconclusive results and toxic doses are left out. Rule as the data show it: active = T/C of 150% or more; inactive = T/C below 125%.

Tested on: L1210 leukemia ip in BDF1 mice, survival T/C
Assay: NCI In Vivo Anticancer Drug Screen. Data for tumor model L1210 Leukemia (intraperitoneal) in B6D2F1 (BDF1) mice
Settings: endpoint: mean survival time, higher = longer survival
Procedure, shortened: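 In this screen, tumor-bearing mice given compound are compared to those given vehicle, and their survival values are reported as a treated-to-control quotient.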

[1] = dose: 100.0 mg/kg/injection, schedule: Q04DX003 (ip), vehicle: saline with Tween-80
[2] = dose: 100.0 mg/kg/injection, schedule: Q01DX009 (ip), vehicle: saline with Tween-80
[3] = dose: 200.0 mg/kg/injection, schedule: Q01DX009 (ip), vehicle: saline with Tween-80
[4] = dose: 100.0 mg/kg/injection, schedule: Q01DX001 (ip), vehicle: Klucel (hydroxypropylcellulose) (HPC)
[5] = dose: 200.0 mg/kg/injection, schedule: Q01DX001 (ip), vehicle: Klucel (hydroxypropylcellulose) (HPC)
[6] = dose: 400.0 mg/kg/injection, schedule: Q01DX001 (ip), vehicle: Klucel (hydroxypropylcellulose) (HPC)
[7] = dose: 100.0 mg/kg/injection, schedule: Q04DX003 (ip), vehicle: Klucel (hydroxypropylcellulose) (HPC)
[8] = dose: 200.0 mg/kg/injection, schedule: Q04DX003 (ip), vehicle: Klucel (hydroxypropylcellulose) (HPC)
[9] = dose: 400.0 mg/kg/injection, schedule: Q04DX003 (ip), vehicle: Klucel (hydroxypropylcellulose) (HPC)
[10] = dose: 100.0 mg/kg/injection, schedule: Q01DX001 (ip), vehicle: carboxymethylcellulose (CMC)
[11] = dose: 200.0 mg/kg/injection, schedule: Q01DX001 (ip), vehicle: carboxymethylcellulose (CMC)
[12] = dose: 400.0 mg/kg/injection, schedule: Q01DX001 (ip), vehicle: carboxymethylcellulose (CMC)
[13] = dose: 200.0 mg/kg/injection, schedule: Q04DX003 (ip), vehicle: saline with Tween-80
[14] = dose: 400.0 mg/kg/injection, schedule: Q01DX009 (ip), vehicle: saline with Tween-80
[15] = dose: 400.0 mg/kg/injection, schedule: Q04DX003 (ip), vehicle: saline with Tween-80
[16] = dose: 100.0 mg/kg/injection, schedule: Q01DX009 (ip), vehicle: Klucel (hydroxypropylcellulose) (HPC)
[17] = dose: 25.0 mg/kg/injection, schedule: Q01DX009 (ip), vehicle: saline
[18] = dose: 50.0 mg/kg/injection, schedule: Q01DX009 (ip), vehicle: saline
[19] = dose: 50.0 mg/kg/injection, schedule: Q04DX003 (ip), vehicle: saline
[20] = dose: 200.0 mg/kg/injection, schedule: Q01DX009 (ip), vehicle: Klucel (hydroxypropylcellulose) (HPC)
[21] = dose: 400.0 mg/kg/injection, schedule: Q01DX009 (ip), vehicle: Klucel (hydroxypropylcellulose) (HPC)

Measured: T/C

CC1(C)CN(Cc2ccccc2)C(C)(C)CN1N
inactive: dose: 6.25 mg/kg/injection, schedule: Q01DX009 (ip), vehicle: saline with Tween-80 96 % of control | dose: 12.5 mg/kg/injection, schedule: Q01DX009 (ip), vehicle: saline with Tween-80 100 % of control | dose: 25.0 mg/kg/injection, schedule: Q01DX009 (ip), vehicle: saline with Tween-80 102 % of control | dose: 25.0 mg/kg/injection, schedule: Q04DX003 (ip), vehicle: saline with Tween-80 105 % of control | dose: 50.0 mg/kg/injection, schedule: Q04DX003 (ip), vehicle: saline with Tween-80 102 % of control | [1] 113 % of control

COC(CN(C)C(=O)NC1CCCCC1)OC
inactive: [2] 102 % of control | [3] 100 % of control

CCOC1C(Br)=Cc2ccccc2N1C(=O)OC (centres undefined)
inactive: [4] 101 % of control | [5] 97 % of control | [6] 101 % of control

C[CH2][Sn]([CH2]c1ccccc1)([c]1ccccc1)[c]1ccccc1
inactive: [7] 95 % of control | [8] 101 % of control | [9] 93 % of control

NC(=O)/C=C/NC(=O)/C=N\O
inactive: dose: 12.5 mg/kg/injection, schedule: Q01DX Z (ip), vehicle: saline 97 % of control and 89 % of control | dose: 25.0 mg/kg/injection, schedule: Q01DX Z (ip), vehicle: saline 92 % of control and 93 % of control | dose: 50.0 mg/kg/injection, schedule: Q01DX Z (ip), vehicle: saline 96 % of control and 97 % of control | [10] 102 % of control | dose: 100.0 mg/kg/injection, schedule: Q01DX Z (ip), vehicle: saline 96 % of control and 100 % of control | [11] 96 % of control | dose: 200.0 mg/kg/injection, schedule: Q01DX Z (ip), vehicle: saline 97 % of control and 89 % of control | [12] 91 % of control

O=C1CSCc2nc3ccccc3n21
inactive: [2] 97 % of control | [1] 106 % of control | [3] 100 % of control | [13] 103 % of control | [14] 100 % of control | [15] 97 % of control

Cc1ccc(S(=O)(=O)N2CC(=O)N(S(=O)(=O)c3ccc(C)cc3)CC2=O)cc1
inactive: dose: 100.0 mg/kg/injection, schedule: Q01DX001 (ip), vehicle: other 106 % of control | dose: 200.0 mg/kg/injection, schedule: Q01DX001 (ip), vehicle: other 103 % of control | dose: 400.0 mg/kg/injection, schedule: Q01DX001 (ip), vehicle: other 106 % of control

O=C1C2CCC(C2)C1C(O)(C(F)(F)Cl)C(F)(F)Cl (centres undefined)
inactive: dose: 50.0 mg/kg/injection, schedule: Q01DX009 (ip), vehicle: saline with Tween-80 92 % of control | [2] 90 % of control | [3] 90 % of control | [14] 92 % of control

O=[N+]([O-])c1cccc(N=Nc2ccc(O)cc2)c1
inactive: [16] 102 % of control | dose: 130.0 mg/kg/injection, schedule: Q01DX009 (ip), vehicle: Klucel (hydroxypropylcellulose) (HPC) 106 % of control

CCN(CC)CCCC(C)Nc1ccnc2cc(Cl)ccc12 (centres undefined)
inactive: dose: 25.0 mg/kg/injection, schedule: Q01DX001 (ip), vehicle: saline 103 % of control | [17] 100 % of control | dose: 25.0 mg/kg/injection, schedule: Q04DX002 (ip), vehicle: saline 95 % of control | dose: 50.0 mg/kg/injection, schedule: Q01DX001 (ip), vehicle: saline 104 % of control | [18] 97 % of control and 98 % of control | dose: 50.0 mg/kg/injection, schedule: Q04DX002 (ip), vehicle: saline 95 % of control | [19] 105 % of control | dose: 100.0 mg/kg/injection, schedule: Q01DX001 (ip), vehicle: saline 118 % of control and 92 % of control | dose: 100.0 mg/kg/injection, schedule: Q01DX009 (ip), vehicle: saline 98 % of control | dose: 100.0 mg/kg/injection, schedule: Q04DX002 (ip), vehicle: saline 95 % of control | dose: 100.0 mg/kg/injection, schedule: Q04DX003 (ip), vehicle: saline 108 % of control

COc1ccc(C(=O)C(=O)c2ccc(OC)cc2)cc1
inactive: dose: 100.0 mg/kg/injection, schedule: Q04DX002 (ip), vehicle: Klucel (hydroxypropylcellulose) (HPC) 98 % of control | dose: 200.0 mg/kg/injection, schedule: Q04DX002 (ip), vehicle: Klucel (hydroxypropylcellulose) (HPC) 98 % of control | dose: 400.0 mg/kg/injection, schedule: Q04DX002 (ip), vehicle: Klucel (hydroxypropylcellulose) (HPC) 95 % of control

CCCCC(CC)C1OC(=O)C(C)O1 (centres undefined)
inactive: [16] 100 % of control | [7] 102 % of control | [20] 104 % of control | [8] 100 % of control | [21] 105 % of control | [9] 102 % of control

C/C=C/C(=O)Nc1ccccc1
inactive: dose: 50.0 mg/kg/injection, schedule: Q01DX001 (ip), vehicle: carboxymethylcellulose (CMC) 97 % of control | [10] 100 % of control | [11] 113 % of control

c1ccc(P(=NC2CCCC2)(c2ccccc2)c2ccccc2)cc1
inactive: [1] 89 % of control | [13] 92 % of control | [15] 87 % of control

C/C(C(=O)O)=C(/Cl)c1c(C)cc(C)c(Br)c1C
inactive: dose: 100.0 mg/kg/injection, schedule: Q01DX001 (ip), vehicle: gum acacia 89 % of control | dose: 100.0 mg/kg/injection, schedule: Q01DX009 (ip), vehicle: gum acacia 108 % of control | dose: 200.0 mg/kg/injection, schedule: Q01DX001 (ip), vehicle: gum acacia 93 % of control | dose: 200.0 mg/kg/injection, schedule: Q01DX009 (ip), vehicle: gum acacia 105 % of control | dose: 400.0 mg/kg/injection, schedule: Q01DX001 (ip), vehicle: gum acacia 91 % of control

CS1(=O)=CC(=O)CC(c2ccccc2)C1 (centres undefined)
inactive: [4] 101 % of control | [16] 107 % of control | [7] 106 % of control | [5] 98 % of control | [20] 102 % of control | [8] 104 % of control | [6] 98 % of control | [21] 107 % of control | [9] 102 % of control

C=CC[n+]1cccc2ccccc21
inactive: dose: 12.5 mg/kg/injection, schedule: Q01DX009 (ip), vehicle: saline 97 % of control | dose: 12.5 mg/kg/injection, schedule: Q04DX003 (ip), vehicle: saline 98 % of control | [17] 101 % of control | dose: 25.0 mg/kg/injection, schedule: Q04DX003 (ip), vehicle: saline 104 % of control | [18] 99 % of control | [19] 98 % of control

Cc1ccc(Cl)cc1NC(=O)Oc1ccc(C(C)(C)C)cc1Br
inactive: [16] 91 % of control | [20] 100 % of control | [21] 108 % of control

COc1ccc(OC)c(CC(C)=O)c1
inactive: [10] 93 % of control | [11] 101 % of control | [12] 95 % of control
